Tests used:
[1] = biological target: T1, isolated recombinant JAK1 kinase domain (Homo sapiens, UniProt P23458); assay: JAK1 enzyme assay (Caliper LabChip, Ki); type: biochemical; settings: recombinant JAK1 kinase domain, 25 μM ATP
T1 construct: The activity of the isolated recombinant JAK1 and JAK2 kinase domain was measured
How it was run: (§1)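 Recombinant JAK1 or JAK2 kinase domain phosphorylating a 5-carboxyfluorescein-labelled JAK3-derived peptide, 30 min at 22° C, stopped with EDTA. Phosphorylated fraction of substrate quantified by Caliper LabChip microfluidic separation. Ki from Morrison tight-binding model corrected for ATP competition (Ki=Ki,app/(1+[ATP]/Km,app)).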

[2] = tested on: JAK1-dependent STAT6 phosphorylation downstream of IL-13 stimulation in BEAS-2B human bronchial epithelial cells; assay: JAK1 pathway assay in BEAS-2B cells (IL-13 stimulated STAT6 phosphorylation, MSD); type: cell-based; settings: read-out: P-STAT6 BEAS2B + IL13 IC50
How it was run: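 BEAS-2B human bronchial epithelial cells, plated the day before in complete growth medium, were preincubated with compound for 1 hr at 37° C (0.2% DMSO final), then stimulated with IL-13 at its EC90 for 15 min. STAT6 phosphorylation in lysates was read by MSD; EC50 was taken as 50% inhibition versus DMSO control.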

[3] = biological target: T2, isolated recombinant JAK2 kinase domain (Homo sapiens, UniProt O60674); assay: JAK2 enzyme assay (Caliper LabChip, Ki); type: biochemical; settings: 25 μM ATP
T2 construct: The activity of the isolated recombinant JAK1 and JAK2 kinase domain was measured
How it was run: as §1

T2 sequence (O60674 849-1124 limits assumed): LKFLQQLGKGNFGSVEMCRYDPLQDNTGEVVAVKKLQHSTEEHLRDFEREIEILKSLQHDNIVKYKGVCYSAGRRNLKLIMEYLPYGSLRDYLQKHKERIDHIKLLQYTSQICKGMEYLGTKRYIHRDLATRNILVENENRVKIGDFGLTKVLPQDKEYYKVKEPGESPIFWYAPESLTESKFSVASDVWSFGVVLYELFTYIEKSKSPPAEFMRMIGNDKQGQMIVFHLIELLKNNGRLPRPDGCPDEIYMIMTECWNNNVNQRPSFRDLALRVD
T1 sequence (P23458 875-1153 limits assumed): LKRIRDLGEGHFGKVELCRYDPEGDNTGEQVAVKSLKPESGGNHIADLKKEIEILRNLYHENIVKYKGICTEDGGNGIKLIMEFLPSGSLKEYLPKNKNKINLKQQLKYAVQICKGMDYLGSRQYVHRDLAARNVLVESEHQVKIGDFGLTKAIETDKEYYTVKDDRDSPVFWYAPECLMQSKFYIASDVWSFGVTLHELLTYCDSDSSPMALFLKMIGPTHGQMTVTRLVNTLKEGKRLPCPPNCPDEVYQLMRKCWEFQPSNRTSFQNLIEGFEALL

| Ki [1] [pM] | Ki [3] [pM] | Structure (SMILES) | IC50 [2] [pM] |
| --- | --- | --- | --- |
| 400 | 360 | CSc1ccc(OC(F)F)c(-c2nn(CC(=O)N3CCC(N4CCn5cncc5C4)CC3)cc2NC(=O)c2cnn3cccnc23)c1 [Example 72, N-[3-[2-(difluoromethoxy)-5-methylsulfanyl-phenyl]-1-[2-[4-(6,8-dihydro-5H-imidazo[1,5-a]pyrazin-7-yl)-1-piperidyl]-2-oxo-ethyl]pyrazol-4-yl]pyrazolo[1,5-a]pyrimidine-3-carboxamide] | 110000 |
| 230 | 250 | CSc1ccc(OC(F)F)c(-c2nn(CC(=O)N3CCC(N4CCn5ccnc5C4)CC3)cc2NC(=O)c2cnn3cccnc23)c1 [Example 73, N-[3-[2-(difluoromethoxy)-5-methylsulfanyl-phenyl]-1-[2-[4-(6,8-dihydro-5H-imidazo[1,2-a]pyrazin-7-yl)-1-piperidyl]-2-oxo-ethyl]pyrazol-4-yl]pyrazolo[1,5-a]pyrimidine-3-carboxamide] | 39000 |
| 300 | 580 | CSc1ccc(OC(F)F)c(-c2nn(CC(=O)N3CCC(CN4CCN(C(=O)CN(C)C)CC4)CC3)cc2NC(=O)c2cnn3cccnc23)c1 [Example 74, N-[3-[2-(difluoromethoxy)-5-methylsulfanyl-phenyl]-1-[2-[4-[[4-[2-(dimethylamino)acetyl]piperazin-1-yl]methyl]-1-piperidyl]-2-oxo-ethyl]pyrazol-4-yl]pyrazolo[1,5-a]pyrimidine-3-carboxamide] | 50000 |
| 1400 | 1000 | CSc1ccc(OC(F)F)c(-c2nn(C3(CC#N)CN(C)C3)cc2NC(=O)c2cnn3cccnc23)c1 [Example 76, N-(1-(3-(cyanomethyl)-1-methylazetidin-3-yl)-3-(2-(difluoromethoxy)-5-(methylthio)phenyl)-1H-pyrazol-4-yl)pyrazolo[1,5-a]pyrimidine-3-carboxamide] | 60000 |
| 470 | 330 | CSc1ccc(OC(F)F)c(-c2nn(C3(CC#N)CNC3)cc2NC(=O)c2cnn3cccnc23)c1 [Example 77, N-(1-(3-(cyanomethyl)azetidin-3-yl)-3-(2-(difluoromethoxy)-5-(methylthio)phenyl)-1H-pyrazol-4-yl)pyrazolo[1,5-a]pyrimidine-3-carboxamide] | 27000 |
| 920 | 720 | CSc1ccc(OC(F)F)c(-c2nn(C3(CC#N)CN(C(=O)OC(C)(C)C)C3)cc2NC(=O)c2cnn3cccnc23)c1 [Example 78, tert-butyl 3-(cyanomethyl)-3-[3-[2-(difluoromethoxy)-5-methylsulfanyl-phenyl]-4-(pyrazolo[1,5-a]pyrimidine-3-carbonylamino)pyrazol-1-yl]azetidine-1-carboxylate] | 69000 |
| 390 | 440 | CSc1ccc(OC(F)F)c(-c2nn(CC(=O)N3CCC(N4CCn5nccc5C4)CC3)cc2NC(=O)c2cnn3cccnc23)c1 [Example 79, N-[3-[2-(difluoromethoxy)-5-methylsulfanyl-phenyl]-1-[2-[4-(6,7-dihydro-4H-pyrazolo[1,5-a]pyrazin-5-yl)-1-piperidyl]-2-oxo-ethyl]pyrazol-4-yl]pyrazolo[1,5-a]pyrimidine-3-carboxamide] | 35000 |
| 260 | 430 | CSc1ccc(OC(F)F)c(-c2nn(CC(=O)N3CCC(CN4CCN(C(C)=O)CC4)CC3)cc2NC(=O)c2cnn3cccnc23)c1 [Example 80, N-[1-[2-[4-[(4-acetylpiperazin-1-yl)methyl]-1-piperidyl]-2-oxo-ethy]-3-[2-(difluoromethoxy)-5-methylsulfanyl-phenyl]pyrazol-4-yl]pyrazolo[1,5-a]pyrimidine-3-carboxamide] | 16000 |
| 350 | 230 | CSc1ccc(OC(F)F)c(-c2nn(Cc3cn(C4CCN(C5CCOCC5)CC4)nn3)cc2NC(=O)c2cnn3cccnc23)c1 [Example 81, N-(3-(2-(difluoromethoxy)-5-(methylthio)phenyl)-1-((1-(1-(tetrahydro-2H-pyran-4-yl)piperidin-4-yl)-1H-1,2,3-triazol-4-yl)methyl)-1H-pyrazol-4-yl)pyrazolo[1,5-a]pyrimidine-3-carboxamide] | 8100 |
| 290 | 410 | COCC(=O)N1CCN(CC2CCN(C(=O)Cn3cc(NC(=O)c4cnn5cccnc45)c(-c4cc(SC)ccc4OC(F)F)n3)CC2)CC1 [Example 82, N-[3-[2-(difluoromethoxy)-5-methylsulfanyl-phenyl]-1-[2-[4-[[4-(2-methoxyacetyl)piperazin-1-yl]methyl]-1-piperidyl]-2-oxo-ethyl]pyrazol-4-yl]pyrazolo[1,5-a]pyrimidine-3-carboxamide] | 34000 |
| 300 | 440 | COC(=O)N1CCN(CC2CCN(C(=O)Cn3cc(NC(=O)c4cnn5cccnc45)c(-c4cc(SC)ccc4OC(F)F)n3)CC2)CC1 [Example 83, methyl 4-[[1-[2-[3-[2-(difluoromethoxy)-5-methylsulfanyl-phenyl]-4-(pyrazolo[1,5-a]pyrimidine-3-carbonylamino)pyrazol-1-yl]acetyl]-4-piperidyl]methyl]piperazine-1-carboxylate] | 10000 |
| 370 | 530 | CSc1ccc(OC(F)F)c(-c2nn(CC(=O)N3CCC(N4CCO[C@H](CO)C4)CC3)cc2NC(=O)c2cnn3cccnc23)c1 [Example 84, N-[3-[2-(difluoromethoxy)-5-methylsulfanyl-phenyl]-1-[2-[4-[(2S)-2-(hydroxymethyl)morpholin-4-yl]-1-piperidyl]-2-oxo-ethyl]pyrazol-4-yl]pyrazolo[1,5-a]pyrimidine-3-carboxamide] | 44000 |
| 330 | 380 | CSc1ccc(OC(F)F)c(-c2nn(CC(=O)N3CCC(N4CCOCC4CO)CC3)cc2NC(=O)c2cnn3cccnc23)c1 (stereo not drawn) [Example 85, N-[3-[2-(difluoromethoxy)-5-methylsulfanyl-phenyl]-1-[2-[4-[3-(hydroxymethyl)morpholin-4-yl]-1-piperidyl]-2-oxo-ethyl]pyrazol-4-yl]pyrazolo[1,5-a]pyrimidine-3-carboxamide] | 110000 |
| 310 | 420 | CSc1ccc(OC(F)F)c(-c2nn(CC(=O)N3CCC(N4CCO[C@@H](CO)C4)CC3)cc2NC(=O)c2cnn3cccnc23)c1 [Example 86, N-[3-[2-(difluoromethoxy)-5-methylsulfanyl-phenyl]-1-[2-[4-[(2R)-2-(hydroxymethyl)morpholin-4-yl]-1-piperidyl]-2-oxo-ethyl]pyrazol-4-yl]pyrazolo[1,5-a]pyrimidine-3-carboxamide] | 120000 |

| Structure (SMILES) | Ki [1] [pM] | Ki [3] [pM] | IC50 [2] [pM] |
| --- | --- | --- | --- |
| CSc1ccc(OC(F)F)c(-c2nn(CC(=O)N3CCC(N4CC5CC(C4)O5)CC3)cc2NC(=O)c2cnn3cccnc23)c1 [Example 75, N-[3-[2-(difluoromethoxy)-5-methylsulfanyl-phenyl]-1-[2-[4-(6-oxa-3-azabicyclo[3.1.1]heptan-3-yl)-1-piperidyl]-2-oxo-ethyl]pyrazol-4-yl]pyrazolo[1,5-a]pyrimidine-3-carboxamide] | 280 | 380 | 12000 |

— US20180265515A1 (Genentech, Inc., priority 2015, published 2018)
